Experimental data published in patent US20220409620A1, “REDUCING IMMUNOGENICITY TO PEGLOTICASE” (Horizon Pharma Rheumatology LLC, priority 2016, published 2022).

Tested on: adult patients with uncontrolled gout
Assay: Serum uric acid (sUA) levels and sUA responder rate, open-label study of pegloticase with MTX (MIRROR OL)
Assay type: in vivo, human
Settings: Month 6 sUA Responders
Procedure: The primary objective is to estimate the response rate during Month 6 (Weeks 20, 22, and 24), as measured by the sustained normalization of serum uric acid (SUA) to <6 mg/dL for at least 80% of the time during Month 6 in subjects receiving KXX with MTX.
The primary efficacy outcome endpoint is the sustained normalization of SUA to <6 mg/dL for at least 80% of the time during month 6 (weeks 20, 22, and 24) in subjects receiving KXX with MTX. […] Participants who achieve this endpoint were classified as “responders.” Serum uric acid (SUA) responders may also be defined as participants achieving and maintaining SUA <6 mg/dL for at least 80% of the time during Month 6 (Weeks 20, 22, and 24).
Blood samples may be collected prior to each pegloticase infusion for measurement of SUA levels using the Beckman Coulter AU System Uric Acid procedure. Participants were declared “non-responders” if there were SUA measures >6 mg/dL at 2 consecutive study visits beginning with the week 2 visit. […] This assumption and subsequent discontinuation of pegloticase was consistent with the protocol of large phase III randomized controlled trials and the product label. A formal stopping rule was 2 occasions of SUA levels of greater than 6 mg/dL.
Clinical Chemistry—Blood samples were collected prior to each pegloticase infusion for measurement of SUA levels (primary efficacy parameter) using the Beckman Coulter AU System Uric Acid procedure. In this procedure uric acid is converted to hydrogen peroxide. Hydrogen peroxide reacts with reagent to produce a chromophore which is read bichromatically at 660/800 nm. The amount of dye formed is proportional to the uric acid concentration in the sample.
Serum samples for measurement of SUA levels were collected at the Screening Visit, the Week −4 Visit (prior to the first dose of MTX), and the Week −2 Visit during the MTX Run-in Period; within 48 hours prior to each pegloticase infusion and after the end of each pegloticase infusion prior to discharge from the site during the Pegloticase+IMM Period; at the non-infusion Week 52/End of Study/Early Termination Visits and at the Post Treatment 3 and 6 Month Follow-up Visits. Additional serum samples for SUA levels were collected at optional non-infusion (Frequent Sampling) Visits at Weeks 1 and 7. […] Subjects with SUA level >6 mg/dL at 2 consecutive visits beginning at Week 2 visit discontinued treatment, completed the End of Pegloticase Infusion Visit procedures within 2 weeks and continued the subject visits according to the protocol (without treatment).
Efficacy analyses were performed using the modified intention-to-treat (mITT) population, defined as all enrolled subjects who received ≥1 dose of pegloticase. The proportion of Month 6 responders was summarized, along with a 95% confidence interval for the proportion. The proportion of Month 3 and overall (Months 3 and 6 combined) responders was analyzed similarly.
A subject was declared a non-responder if the subject had SUA level >6 mg/dL at 2 consecutive study visits beginning with the Week 2 Visit. In addition, a subject who withdraws from study treatment for any reason after the first dose of pegloticase in the KXX+MTX Period and prior to Month 6 (for the primary endpoint) or Month 3 (for the secondary endpoint) was considered a non-responder if SUA values were not collected at the planned time points.
Patients were administered oral MTX (15 mg/week) and folate (1 mg/day) 4 weeks prior to the first pegloticase infusion (Day 1) and throughout the pegloticase treatment period. Blood was drawn prior to each infusion to measure sUA level, monitor clinical parameters, and examine for ADA development. All patients followed typical IR prophylaxis protocols (fexofenadine one day before and the morning of each infusion and acetaminophen and IV corticosteroid the morning of each infusion).

pegloticase
Serum Uric Acid, Observed, Median (Week 14-Post-Infusion, n=10): 0.30 mg/dL | sUA <6 mg/dL, n (%) (Week 14-Post-Infusion, n=10): 10 (100%) | Serum Uric Acid, Change from Baseline, Mean (SD) (Week 14-Pre-Infusion, n=11): −8.97 (2.810) mg/dL | Serum Uric Acid, Change from Baseline, Median (Week 14-Pre-Infusion, n=11): -8.80 mg/dL | Serum Uric Acid, Observed, Mean (SD) (Week 14-Pre-Infusion, n=11): 0.30 (0.000) mg/dL | Serum Uric Acid, Observed, Median (Week 14-Pre-Infusion, n=11): 0.30 mg/dL | sUA <6 mg/dL, n (%) (Week 14-Pre-Infusion, n=11): 11 (100%) | Serum Uric Acid, Change from Baseline, Mean (SD) (Week 16-Post-Infusion, n=11): −8.97 (2.810) mg/dL | Serum Uric Acid, Change from Baseline, Median (Week 16-Post-Infusion, n=11): -8.80 mg/dL | Serum Uric Acid, Observed, Mean (SD) (Week 16-Post-Infusion, n=11): 0.30 (0.000) mg/dL | Serum Uric Acid, Observed, Median (Week 16-Post-Infusion, n=11): 0.30 mg/dL | sUA <6 mg/dL, n (%) (Week 16-Post-Infusion, n=11): 11 (100%) | Serum Uric Acid, Change from Baseline, Mean (SD) (Week 16-Pre-Infusion, n=11): −8.97 (2.810) mg/dL | Serum Uric Acid, Change from Baseline, Median (Week 16-Pre-Infusion, n=11): -8.80 mg/dL | Serum Uric Acid, Observed, Mean (SD) (Week 16-Pre-Infusion, n=11): 0.30 (0.000) mg/dL | Serum Uric Acid, Observed, Median (Week 16-Pre-Infusion, n=11): 0.30 mg/dL | sUA <6 mg/dL, n (%) (Week 16-Pre-Infusion, n=11): 11 (100%) | Serum Uric Acid, Change from Baseline, Mean (SD) (Week 18-Post-Infusion, n=11): −8.97 (2.810) mg/dL | Serum Uric Acid, Change from Baseline, Median (Week 18-Post-Infusion, n=11): -8.80 mg/dL | Serum Uric Acid, Observed, Mean (SD) (Week 18-Post-Infusion, n=11): 0.30 (0.000) mg/dL | Serum Uric Acid, Observed, Median (Week 18-Post-Infusion, n=11): 0.30 mg/dL | sUA <6 mg/dL, n (%) (Week 18-Post-Infusion, n=11): 11 (100%) | Serum Uric Acid, Change from Baseline, Mean (SD) (Week 18-Pre-Infusion, n=11): −8.97 (2.810) mg/dL | Serum Uric Acid, Change from Baseline, Median (Week 18-Pre-Infusion, n=11): -8.80 mg/dL | Serum Uric Acid, Observed, Mean (SD) (Week 18-Pre-Infusion, n=11): 0.30 (0.000) mg/dL | Serum Uric Acid, Observed, Median (Week 18-Pre-Infusion, n=11): 0.30 mg/dL | sUA <6 mg/dL, n (%) (Week 18-Pre-Infusion, n=11): 11 (100%) | Serum Uric Acid, Change from Baseline, Mean (SD) (Week 20-Post-Infusion, n=11): −8.97 (2.810) mg/dL | Serum Uric Acid, Change from Baseline, Median (Week 20-Post-Infusion, n=11): -8.80 mg/dL | Serum Uric Acid, Observed, Mean (SD) (Week 20-Post-Infusion, n=11): 0.30 (0.000) mg/dL | Serum Uric Acid, Observed, Median (Week 20-Post-Infusion, n=11): 0.30 mg/dL | sUA <6 mg/dL, n (%) (Week 20-Post-Infusion, n=11): 11 (100%) | Serum Uric Acid, Change from Baseline, Mean (SD) (Week 20-Pre-Infusion, n=11): −8.97 (2.810) mg/dL | Serum Uric Acid, Change from Baseline, Median (Week 20-Pre-Infusion, n=11): -8.80 mg/dL | Serum Uric Acid, Observed, Mean (SD) (Week 20-Pre-Infusion, n=11): 0.30 (0.000) mg/dL | Serum Uric Acid, Observed, Median (Week 20-Pre-Infusion, n=11): 0.30 mg/dL | sUA <6 mg/dL, n (%) (Week 20-Pre-Infusion, n=11): 11 (100%) | Serum Uric Acid, Change from Baseline, Median (Week 22-Post-Infusion, n=11): -8.80 mg/dL | Serum Uric Acid, Observed, Median (Week 22-Post-Infusion, n=11): 0.30 mg/dL | sUA <6 mg/dL, n (%) (Week 22-Post-Infusion, n=11): 11 (100%) | Serum Uric Acid, Change from Baseline, Mean (SD) (Week 22-Pre-Infusion, n=11): −8.97 (2.810) mg/dL | Serum Uric Acid, Change from Baseline, Median (Week 22-Pre-Infusion, n=11): -8.80 mg/dL | Serum Uric Acid, Observed, Mean (SD) (Week 22-Pre-Infusion, n=11): 0.30 (0.000) mg/dL | Serum Uric Acid, Observed, Median (Week 22-Pre-Infusion, n=11): 0.30 mg/dL | sUA <6 mg/dL, n (%) (Week 22-Pre-Infusion, n=11): 11(100%) | Serum Uric Acid, Change from Baseline, Mean (SD) (Week 24-Post-Infusion, n=5): −9.18 (4.135) mg/dL | Serum Uric Acid, Change from Baseline, Median (Week 24-Post-Infusion, n=5): -9.30 mg/dL | Serum Uric Acid, Observed, Mean (SD) (Week 24-Post-Infusion, n=5): 0.30 (0.000) mg/dL | Serum Uric Acid, Observed, Median (Week 24-Post-Infusion, n=5): 0.30 mg/dL | sUA <6 mg/dL, n (%) (Week 24-Post-Infusion, n=5): 5 (100%) | Serum Uric Acid, Change from Baseline, Mean (SD) (Week 24-Pre-Infusion, n=11): −8.97 (2.810) mg/dL | Serum Uric Acid, Change from Baseline, Median (Week 24-Pre-Infusion, n=11): -8.80 mg/dL | Serum Uric Acid, Observed, Mean (SD) (Week 24-Pre-Infusion, n=11): 0.30 (0.000) mg/dL | Serum Uric Acid, Observed, Median (Week 24-Pre-Infusion, n=11): 0.30 mg/dL | sUA <6 mg/dL, n (%) (Week 24-Pre-Infusion, n=11): 11 (100%) | Serum Uric Acid, Change from Baseline, Mean (SD) (Week 26-Pre-Infusion, n=8): −9.11 (3.293) mg/dL | Serum Uric Acid, Change from Baseline, Median (Week 26-Pre-Infusion, n=8): -8.95 mg/dL | Serum Uric Acid, Observed, Mean (SD) (Week 26-Pre-Infusion, n=8): 0.30 (0.000) mg/dL | Serum Uric Acid, Observed, Median (Week 26-Pre-Infusion, n=8): 0.30 mg/dL | sUA <6 mg/dL, n (%) (Week 26-Pre-Infusion, n=8): 8 (100%) | Serum Uric Acid, Change from Baseline, Mean (SD) (Week 28-Pre-Infusion, n=8): −9.11 (3.293) mg/dL | Serum Uric Acid, Change from Baseline, Median (Week 28-Pre-Infusion, n=8): -8.95 mg/dL
